In US7198804B2, “Crude drug composition for preventing and treating gastrointestinal dyskinetic diseases” (Helixir Co., Ltd., priority 2002, dated 2007):
Counter-ions that a name gives are not always drawn.

Assays:
[1] = test system: gastrointestinal motility; assay: Gastrointestinal transit (GIT) of charcoal meal in mice; type: in vivo, ICR derived mice; conditions: for GIT: mean±S.E.M.
Protocol: Female ICR derived mice (Seoul National University) weighing 22±2 grams were used. All animals were maintained in a controlled environment with temperatures at 22° C.–24° C. and humidity at 60%–80% with 12 hours of light and dark cycles for at least one week prior to use. 9 groups of 8 ICR derived female mice were fasted with free access to water for 16 hours prior to testing.
For the estimation of the effect on gastrointestinal motility, 0.1 g of the brown powder of each formulation obtained in Example 1, was dissolved in 1 ml of 2% Tween 80 (Wako, Japan) and administrated orally to the mice.
Atropine sulfate (Sigma, USA) was used for the negative control in the experiment, which is known to induce smooth muscle relaxation. Mosapride citrate was administered at 20 mg/kg. Each crude drug composition of 6 formulations prepared in Example 1, was administered at 1.0 g/kg. At 60 minutes post dosing, the animals were given a suspension of 5% activated charcoal (Sigma, USA) in a 10% arabic gum (Sigma, USA) solution (0.3 ml/animal p.o.) and sacrificed 15 minutes later.
The intestine was removed and the length of the gut in cm (GL) as well as distance of charcoal movement from the pylorus to the beginning of the charcoal column in cm (CP), was measured. Gastrointestinal transit (GIT) has been calculated as below Formula 1. The mean GIT value of each group has been compared to that of the vehicle control. GIT(%)=(CP/GL)×100 Formula 1
Values were expressed as means±S.E.M. Students' t-test was used for the statistical analysis of the results of gastrointestinal transit. Probability values (p) less than 0.05 were considered to be significant.
PG202, prepared in Example 1, was administered into the mice orally at concentrations of 0.1 g/kg, 1.0 g/kg, and 5.0 g/kg. The control group was administered with the vehicle (2% Tween 80) at 10 ml/kg. At 60 minutes post dosing, the animals were given a suspension of 5% activated charcoal (Sigma, USA) in a 10% Arabic gum (Sigma, USA) solution (0.3 ml/animal p.o.) and sacrificed 15 minutes later and the gastrointestinal transit (GIT) was examined according to the Formula 1. Data have been expressed as means±S.E.M.*p<0.05.
PG202 was administrated orally at 1.0 g/kg to the test group, 2% Tween 80 (Wako, Japan) at 10 ml/kg to control group, Mosapride citrate at 20 mg/kg to positive control group, Atropine sulfate (Sigma, USA) at 100 mg/kg to negative control group. Data have been expressed as means±S.E.M.*p<0.05.
At 60 minutes post dosing, the animals were given a suspension of 5% activated charcoal (Sigma, USA) in a 10% arabic gum (Sigma, USA) solution (0.3 ml /animal p.o.) and sacrificed 15 minutes later. GIT (%) values were determined according to the Formula 1.

rodents = conditions: cited from earlier work

## CN1[C@@H]2CC[C@H]1CC(OC(=O)C(CO)c1ccccc1)C2.CN1[C@@H]2CC[C@H]1CC(OC(=O)C(CO)c1ccccc1)C2.O=S(=O)(O)O (some centres unmarked) [Atropine, Atropine sulfate]
[1]; 100 mg/kg p.o.
  decrease of GIT in comparison to the control group: 35%
[1]; 100 mg/kg p.o., negative control
  GIT: 35.4±3.4%

## CCOc1cc(N)c(Cl)cc1C(=O)NCC1CN(Cc2ccc(F)cc2)CCO1 (centres unmarked) [mosapride citrate]
rodents
  incidence of hepatocellular adenoma and thyroid follicular cell adenoma: increased
[1]; 20 mg/kg p.o.
  increase of GIT compared to the control: 21%
[1]; 20 mg/kg p.o., positive control
  GIT: 63.7±5.2%
